Where a name gives a salt, the structure may show the parent alone. Read-outs that look alike come from different tables or passages of the source.
Experiments:
HCV Genotype NS5A GT1b = conditions: known inhibitors, literature values; cited from earlier work
HCV Genotype NS5A GT5a = conditions: known inhibitors, literature values; cited from earlier work
HCV Genotype NS5A GT3a = conditions: known inhibitors, literature values, cited from earlier work
HCV Genotype NS5A GT1a = conditions: known inhibitors, literature values; cited from earlier work
HCV Genotype NS5A GT2a = conditions: known inhibitors, literature values, cited from earlier work
HCV Genotype NS5A GT4a = conditions: known inhibitors, literature values; cited from earlier work
[1] = known inhibitors, literature values; cited from earlier work
HCV gT1b replicon = test: HCV replicon assay, gT1b; assay type: cell-based, Hepatitis C virus (HCV); conditions: Huh7 replicon cells, mean value
Description: (§1) The HCV replicon assay was used to determine the antiviral activity of compounds of general formula 2 (test compounds). The test cell line used in the HCV Replicon Assay was the human hepatoma cell line Huh7 incorporating the HCV replicons synthesized by an outside vendor.
(§2) 96-well plates were seeded with cells at a density of 7.5×10^3 cells per well in 50 μl of assay media. The compound stock solution was made up freshly in an assay medium (DMEM 1×, Cellgro; cat. #10-013-CV) as a 2× stock. A total of 11 serial 3-fold dilutions of test compounds were prepared from the 2× stock in the assay media ranging from 20 nM-0.2 pM final concentrations. At least 4 hours after seeding the cells, compound treatment was initiated by adding 50 μl of compound dilution to the plates. The final concentrations of compound therefore ranged from 10 nM to 0.1 pM when diluted 1:1 in culture media. The final DMSO concentration was 0.5%. Cells and inhibitors were incubated for 3 days at 37° C./5% CO2. The media was removed from the plates by gentle tapping. The cells were fixed with 100 μl 1:1 acetone:methanol for 1 minute, washed three times with PBS buffer, and then blocked with 150 μl/well 10% Fetal Bovine Serum (FBS) in PBS for 1 hour at room temperature. The cells were then washed three times with PBS buffer and incubated with 100 μl/well anti-hepatitis C core mAb (Affinity BioReagents; cat. # MA1-080, 1 mg/ml stock diluted 1:4,000 in 10% FBS-PBS) for 2 hours at 37° C. Then, the cells were washed three times with PBS and incubated with 100 μl/well HRP-Goat Anti-Mouse antibody (diluted 1:3.500 in 10% FBS-PBS) for 1 hour at 37° C. The cells were then washed three times with PBS and developed with an OPD solution, 100 μl/well (1 OPD tablet+12 ml citrate/phosphate buffer+5 μl 30% H2O2 per plate), for 30 minutes in the dark at room temperature. The reaction was stopped with 2N H2SO4 (100 μl/well), and the absorbance was measured at A490 X on a Victor^3 V 1420 multilabel counter (Perkin Elmer).

HCV gT5a replicon = test: HCV replicon assay, gT5a; assay type: cell-based, Hepatitis C virus (HCV)
Description: as §1, §2

HCV gT3a replicon = test: HCV replicon assay, gT3a; assay type: cell-based, Hepatitis C virus (HCV)
Description: as §1, §2

HCV gT4a replicon = test: HCV replicon assay, gT4a; assay type: cell-based, Hepatitis C virus (HCV)
Description: as §1, §2

HCV gT1a replicon = test: HCV replicon assay, gT1a; assay type: cell-based, Hepatitis C virus (HCV); conditions: Huh7 replicon cells, mean
Description: as §1, §2

HCV gT2a replicon = test: HCV replicon assay, gT2a; assay type: cell-based, Hepatitis C virus (HCV); conditions: Huh7 replicon cells, mean
Description: as §1, §2

[2] = Bioavailability of new inhibitors in rats; conditions: rat, in vivo
[3] = Cytotoxicity, cell viability by ATPLite Kit; assay type: cell-based, human; conditions: human, Huh7 cells (human hepatoma cell line), 10% FBS, maximal inhibition, read-out: Cytotox gT1b 10% FBS max. inh.
Description: (§3) The cytotoxicity of the test compounds was studied in parallel using the same cell line, Huh7. Cell viability was determined using the ATPLite Kit (Perkin-Elmer, Boston, USA), according to manufacturer's instructions. 96-well black/transparent bottom plates were seeded with cells at a density of 7.5×10^3 cells per well in 50 μl medium. After 18 hours, compound treatment was initiated by adding 50 μl of compound dilution into the plates. Each compound dilution was tested in triplicates. The cells and inhibitors were then incubated for 96 hours at 37° C./5% CO2. The plates were washed twice with PBS (0.2 ml/well), and then lysed by adding lysis buffer, 0.05 ml/well (all reagents were included with the ATPLite Kit). After rocking for 5 min on a rocking platform, substrate buffer was added (0.05 ml/well). After additional 5-min incubation, the plates were kept in dark for 10 min, and the luminescence was read using TopCount NXT (Packard, Perkin Elmer). CC50 values for all test compounds were determined using XLfit 4.1 software (Table 2).

[4] = test system: human hepatoma cell line Huh7; test: Cytotoxicity, cell viability by ATPLite Kit; assay type: cell-based; conditions: 96 hours, maximal inhibition
Description: as §3

[5] = Hepatitis C virus, GT1B, Huh-7, 10% FBS, read-out: gT1b 10% FBS, EC50 (pM) mean
[6] = Hepatitis C virus, GT1B, Huh-7, 40% NHS, read-out: gT1b 40% NHS, EC50 (pM) mean
[7] = Hepatitis C virus, GT5A, Huh-7, read-out: gT5a, EC50 (pM) mean
[8] = Hepatitis C virus, GT3A, Huh-7, Huh7 replicon cells, mean, read-out: gT3a, EC50 (pM) mean
[9] = Hepatitis C virus, GT4A, Huh-7, read-out: gT4a, EC50 (pM) mean

SMILES | EC50 (HCV Genotype NS5A GT1b) | EC50 (HCV Genotype NS5A GT1a) | EC50 (HCV Genotype NS5A GT2a) | EC50 (HCV Genotype NS5A GT4a) | EC50 (HCV gT1b replicon; [5]) | EC50 (HCV gT1b replicon; [6]) | EC50 (HCV gT5a replicon; [7]) | EC50 (HCV gT3a replicon; [8]) | EC50 (HCV gT4a replicon; [9]) | EC50 (HCV gT1a replicon; Hepatitis C virus, GT1A, Huh-7) | EC50 (HCV gT2a replicon; Hepatitis C virus, GT2A, Huh-7) | inhibition at 96 h [3] | also measured
COC(=O)N[C@H](C(=O)N1CCC[C@H]1c1ncc(C#CC#Cc2ccc(-c3cnc([C@@H]4CCCN4C(=O)[C@@H](NC(=O)OC)C(C)C)[nH]3)cc2)[nH]1)C(C)C [AV-4025, Hepavivir] | 3.4 pM | 59 pM | 51 pM | 12 pM |  |  |  |  |  |  |  |  | EC50 (HCV Genotype NS5A GT5a): 172 pM; EC50, pM HCV Genotype NS5A GT5a (HCV Genotype NS5A GT5a): insufficient activities; EC50, pM HCV Genotype NS5A GT3a (HCV Genotype NS5A GT3a): insufficient activities; Bioavailability in rat, F, % [1]: 65.0%
COC(=O)N[C@H](C(=O)N1CCC[C@H]1C(=O)Nc1ccc([C@@H]2CC[C@@H](c3ccc(NC(=O)[C@@H]4CCCN4C(=O)[C@@H](NC(=O)OC)C(C)C)cc3)N2c2ccc(C(C)(C)C)cc2)cc1)C(C)C [Ombitasvir] | 5 pM | 14.1 pM | 12.4 pM | 1.7 pM |  |  |  |  |  |  |  |  | EC50 (HCV Genotype NS5A GT5a): 4.3 pM; EC50 (HCV Genotype NS5A GT3a): 19.3 pM
COC(=O)N[C@H](C(=O)N1CCC[C@H]1c1ncc(-c2ccc(C#CC#Cc3cnc([C@@H]4CCCN4C(=O)[C@H](NC(=O)OC)c4ccccc4)[nH]3)c(-c3ccccc3)c2)[nH]1)C(C)C.Cl.Cl [2(7)•2HCl, [(S)-1-((S)-2-{5-[6-(4-{2-[(S)-1-((R)-2-Methoxycarbonylamino-2-phenyl-acetyl)-pyrrolidin-2-yl]-3H-imidazol-4-yl}-buta-1,3-diynyl)-biphenyl-3-yl]-1H-imidazol-2-yl}-pyrrolidine-1-carbonyl)-2-methyl-propyl]-carbamic acid methyl ester dihydrochloride] |  |  |  |  | 1.92 pM | 12.6 pM | 19.8 pM | 23 pM | 8.5 pM | 22.5 pM | 5.9 pM | 32% | bioavailability [2]: 31%
COC(=O)N[C@H](C(=O)N1CCC[C@H]1c1ncc(-c2ccc(C#CC#Cc3cnc([C@@H]4CCCN4C(=O)[C@H](NC(=O)OC)c4ccccc4)[nH]3)c(Oc3ccccc3)c2)[nH]1)C(C)C [2(19)•2HCl, [(S)-1-((S)-2-{5-[4-(4-{2-[(S)-1-((R)-2-Methoxycarbonylamino-2-phenyl-acetyl)-pyrrolidin-2-yl]-3H-imidazol-4-yl}-buta-1,3-diynyl)-3-phenoxy-phenyl]-1H-imidazol-2-yl}-pyrrolidine-1-carbonyl)-2-methyl-propyl]-carbamic acid methyl ester dihydrochloride] |  |  |  |  | 1.53 pM | 8.41 pM | 18.8 pM |  | 6 pM | 214 pM | 12.6 pM | 38% | EC50 (HCV gT3a replicon; Hepatitis C virus, GT3A, Huh-7, read-out: gT3a, EC50 (pM) mean, Huh7 replicon cells): 40.3 pM
COC(=O)N[C@H](C(=O)N1CCC[C@H]1c1ncc(-c2ccc(C#CC#Cc3cnc([C@@H]4CCCN4C(=O)[C@H](NC(=O)OC)c4ccccc4)[nH]3)c(-c3ccc(N(C)C)cc3)c2)[nH]1)C(C)C.Cl.Cl.Cl [2(14)•2HCl, [(S)-1-((S)-2-{5-[4′-Dimethylamino-6-(4-{2-[(S)-1-((R)-2-methoxycarbonylamino-2-phenyl-acetyl)-pyrrolidin-2-yl]-3H-imidazol-4-yl}-buta-1,3-diynyl)-biphenyl-3-yl]-1H-imidazol-2-yl}-pyrrolidine-1-carbonyl)-2-methyl-propyl]-carbamic acid methyl ester troihydrochloride] |  |  |  |  |  |  |  |  |  |  |  |  | EC50 (HCV gT1b replicon; 10% FBS, read-out: gT1b 10% FBS, EC50 (pM) mean): 1.51 pM; EC50 (HCV gT1b replicon; 40% NHS, read-out: gT1b 40% NHS, EC50 (pM) mean): 13 pM; EC50 (HCV gT5a replicon; Huh7 replicon cells, mean, read-out: gT5a, EC50 (pM) mean): 52 pM; EC50 (HCV gT3a replicon; Huh7 replicon cells, mean, read-out: gT3a, EC50 (pM) mean): 38.5 pM; EC50 (HCV gT4a replicon; Huh7 replicon cells, mean, read-out: gT4a, EC50 (pM) mean): 10.8 pM; EC50 (HCV gT1a replicon): 138 pM; EC50 (HCV gT2a replicon): 12.8 pM; Cytotox gT1b 10% FBS max. inh. [4]: 23%
COC(=O)N[C@H](C(=O)N1CCC[C@H]1c1ncc(-c2cc(C)c(C#CC#Cc3cnc([C@@H]4CCCN4C(=O)[C@H](NC(=O)OC)c4ccccc4)[nH]3)c(-c3ccccc3)c2)[nH]1)C(C)C [2(18)•2HCl, [(S)-1-((S)-2-{5-[6-(4-{2-[(S)-1-((R)-2-Methoxycarbonylamino-2-phenyl-acetyl)-pyrrolidin-2-yl]-3H-imidazol-4-yl}-buta-1,3-diynyl)-5-methyl-biphenyl-3-yl]-1H-imidazol-2-yl}-pyrrolidine-1-carbonyl)-2-methyl-propyl]-carbamic acid methyl ester dihydrochloride] |  |  |  |  | 1.89 pM | 10.9 pM | 19.2 pM | 26 pM | 9.6 pM | 124 pM | 3 pM | 12% | 
COC(=O)N[C@H](C(=O)N1CC2(CC2)C[C@H]1c1nc(-c2ccc3c(c2)C(F)(F)c2cc(-c4ccc5[nH]c([C@@H]6[C@H]7CC[C@H](C7)N6C(=O)[C@@H](NC(=O)OC)C(C)C)nc5c4)ccc2-3)c[nH]1)C(C)C [Ledipasvir] | 5 pM | 31 pM | 20.8 pM | 7 pM |  |  |  |  |  |  |  |  | EC50, pM HCV Genotype NS5A GT5a (HCV Genotype NS5A GT5a): insufficient activities; EC50 (HCV Genotype NS5A GT3a): 10.1 pM; EC50, pM HCV Genotype NS5A GT3a (HCV Genotype NS5A GT3a): insufficient activities; EC50 (HCV Genotype NS5A GT3a; listed as Ledipasvir (GS-5885)): 10100 pM; EC50 (HCV Genotype NS5A GT2a; listed as Ledipasvir (GS-5885)): 20800 pM
COC(=O)N[C@H](C(=O)N1CCC[C@H]1c1ncc(-c2ccc(C#CC#Cc3cnc([C@@H]4CCCN4C(=O)[C@H](NC(=O)OC)c4ccccc4)[nH]3)c(N(C)c3ccccc3)c2)[nH]1)C(C)C [2(21)•2HCl, [(S)-1-((S)-2-{5-[4-(4-{2-[(S)-1-((R)-2-Methoxycarbonylamino-2-phenyl-acetyl)-pyrrolidin-2-yl]-3H-imidazol-4-yl}-buta-1,3-diynyl)-3-(methyl-phenyl-amino)-phenyl]-1H-imidazol-2-yl}-pyrrolidine-1-carbonyl)-2-methyl-propyl]-carbamic acid methyl ester trihydrochloride] |  |  |  |  | 1.79 pM | 14.2 pM | 26.6 pM | 35.1 pM | 11 pM | 72 pM | 10.6 pM | 14% | 

From patent publication US9790207B2, “Pan-genomic inhibitors of NS5A protein encoded by HCV, pharmaceutical compositions, intermediates for inhibitor synthesis, and their synthesis and application methods” (priority 2015, dated 2017)
